Measurements published in US8680275B2, “Fused heterocyclic compounds as orexin receptor modulators” (Janssen Pharmaceutica NV, priority 2009, dated 2014).

Assays:
human orexin-2 receptor = human orexin-2 receptor (Homo sapiens (Human), UniProt O43614); assay: Human orexin 2 receptor radioligand binding ([3H]-EMPA competition); conditions: HEK293 cells stably expressing human orexin-2 receptor; [3H]-EMPA 5 nM final; read-out: OR-2 Ki
Experimental: (§1) The in vitro affinity of the compounds for the human orexin-1 and orexin-2 receptors was determined by competitive radioligand binding using [^3H]SB SB674042 (1-(5-(2-fluoro-phenyl)-2-methyl-thiazol-4-yl)-1-((S)-2-(5-phenyl-(1,3,4)oxadiazol-2-ylmethyl)-pyrrolidin-1-yl)methanone) (Langmead et al., British Journal of Pharmacology 2004, 141:340-346.) and [^3H]EMPA (N-ethyl-2[(6-methoxy-pyridin-3-yl)-(toluene-2-sulfonyl)-amino]-N-pyridin-3-ylmethyl acetamide) (Malherbe et al., British Journal of Pharmacology, 2009, 156(8), 1326-1341), respectively.
Human Orexin 2 Receptor Radioligand Binding Studies
HEK293 stably expressing human orexin-2 receptor (Genebank accession number NM_001526) were grown to confluency in DMEM/F12 (Gibco, Cat #11039), in DMEM, 10% FBS, 1× Pen/Strep, 1× NaPyruvate, 1×HEPES, 600 ug/ml G418 media on 150 cm^2 tissue culture plates, washed with 5 mM EDTA in PBS (HyClone Dulbecco's Phosphate Buffered Saline 1× with Calcium and Magnesium, Cat #SH30264.01, hereafter referred to simply as PBS) and scraped into 50 ml tubes. After centrifugation (2K xG, 10 min at 4° C.), the supernatant was aspirated and the pellets frozen and stored at −80° C. Cells were resuspended in PBS in the presence of 1 tablet of protease inhibitor cocktail (Roche, Cat. #11836145001) per 50 mL. […] Competition binding experiments in 96 well polypropylene plates were performed using [^3H]-EMPA (Moravek Corporation, specific activity=27 Ci/mmol), diluted to a […] concentration in PBS (5 nM final concentration). Compounds were solubilized in 100% DMSO (Acros Organics, Cat. #61042-1000) and tested over a range of 7 concentrations (from 0.1 nM to 10 μM). The final concentration of DMSO in the reactions is equal to or less than 0.1%. Total and nonspecific binding was determined in the absence and presence of 10 μM (N-[2-(3,4-dimethoxyphenyl)ethyl]-N-methylnaphthalene-1-carboxamide, CAS Registry #1089563-88-1). The total volume of each reaction is 200 μL (20 μL of diluted compounds, 80 μL of [^3H]-EMPA diluted in PBS and 100 μL of the cell suspension). Reactions were run for 60 min at room temperature and terminated by filtration through GF/C filter plates (PerkinElmer, Cat. #6005174) presoaked in 0.3% polyethylenimine using the cell harvester (Perkin Elmer Filtermate). The plates were washed 3 times by aspirating 30 ml PBS through the plates. Plates were dried in 55° C. oven for 60 min, scintillation fluid was added, and the radioactivity was counted on a Topcount (Packard).

human orexin 1 receptor = human orexin 1 receptor (Homo sapiens (Human), UniProt O43613); assay: Human orexin 1 receptor radioligand binding ([3H]-SB674042 competition); conditions: CHO cells stably expressing human orexin 1 receptor; [3H]-SB674042 4 nM final; read-out: OR-1 Ki
Experimental: as §1
Human Orexin 1 Receptor Radioligand Binding Studies
Chinese ovary cells (CHO) stably expressing human orexin 1 receptor (Genebank accession number NM_001526) were grown to confluency in DMEM/F12 (Gibco, Cat #11039), 10% FBS, 1× Pen/Strep, 600 μg/mL G418 media on 150 cm^2 tissue culture plates, washed with 5 mM EDTA in PBS (HyClone Dulbecco's Phoshpate Buffered Saline 1× with Calcium and Magnesium, Cat #SH30264.01, hereafter referred to simply as PBS) and scraped into 50 ml tubes. After centrifugation (2K xG, 10 min at 4° C.), the supernatant was aspirated and the pellets frozen and stored at −80° C. Cells were resuspended in PBS in the presence of 1 tablet of protease inhibitor cocktail (Roche, Cat. #11836145001) per 50 mL. […] Compounds were solubilized in 100% DMSO (Acros Organics, Cat. #61042-1000) and tested over a range of 7 concentrations (from 0.1 nM to 10 μM). The final concentration of DMSO in the reactions is equal to or less than 0.1%. Total and nonspecific binding was determined in the absence and presence of 10 μM (1-(6,8-difluoro-2-methylquinolin-4-yl)-3-[4-(dimethylamino)phenyl]urea, CAS Registry #288150-92-5). The total volume of each reaction is 200 μL (20 μL of diluted compounds, 80 μL of [^3H]-SB674042 diluted in PBS and 100 μL of the cell suspension). Reactions were run for 60 min at room temperature and terminated by filtration through GF/C filter plates (PerkinElmer, Cat. #6005174) presoaked in 0.3% polyethylenimine using the cell harvester (PerkinElmer Filtermate). The plates were washed 3 times by aspirating 30 ml PBS through the plates. Plates were dried in 55° C. oven for 60 min, scintillation fluid was added, and the radioactivity was counted on a Topcount (Packard).

Sequence of human orexin-2 receptor (O43614 whole entry): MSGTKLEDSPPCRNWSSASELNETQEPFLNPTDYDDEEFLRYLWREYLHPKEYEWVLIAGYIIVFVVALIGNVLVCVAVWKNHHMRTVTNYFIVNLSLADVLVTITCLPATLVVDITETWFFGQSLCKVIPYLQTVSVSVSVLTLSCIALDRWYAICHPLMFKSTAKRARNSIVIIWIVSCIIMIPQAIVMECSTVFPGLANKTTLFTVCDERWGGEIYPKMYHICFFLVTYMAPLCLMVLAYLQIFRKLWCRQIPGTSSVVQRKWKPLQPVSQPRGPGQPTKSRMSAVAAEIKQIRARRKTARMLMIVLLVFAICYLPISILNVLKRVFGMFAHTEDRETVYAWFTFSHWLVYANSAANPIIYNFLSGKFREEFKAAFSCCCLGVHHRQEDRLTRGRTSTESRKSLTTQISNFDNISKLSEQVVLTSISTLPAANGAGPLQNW
Sequence of human orexin 1 receptor (O43613 whole entry): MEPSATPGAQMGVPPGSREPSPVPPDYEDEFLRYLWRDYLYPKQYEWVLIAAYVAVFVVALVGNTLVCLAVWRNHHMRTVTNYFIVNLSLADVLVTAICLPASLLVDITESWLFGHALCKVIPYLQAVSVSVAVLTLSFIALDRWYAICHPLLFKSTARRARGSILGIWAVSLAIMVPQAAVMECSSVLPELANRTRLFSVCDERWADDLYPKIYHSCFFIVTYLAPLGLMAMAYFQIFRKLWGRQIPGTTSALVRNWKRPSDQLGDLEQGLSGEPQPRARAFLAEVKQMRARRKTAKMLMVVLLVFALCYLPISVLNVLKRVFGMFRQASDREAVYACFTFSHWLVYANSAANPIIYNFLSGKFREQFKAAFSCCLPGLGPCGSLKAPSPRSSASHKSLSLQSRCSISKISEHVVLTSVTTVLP

SMILES	Ki (human orexin-2 receptor) [nM]	Ki (human orexin 1 receptor) [nM]
O=C(c1ccccc1-c1ccccc1)N1CC2CN(c3cnc4ccccc4n3)C2C1 (stereo not shown) [Example 48, 2-[3-(Biphenyl-2-ylcarbonyl)-3,6-diazabicyclo[3.2.0]hept-6-yl]quinoxaline]	179	258
Cc1cc(C)nc(N2C[C@@H]3CCN(C(=O)c4cccc(C)c4-n4nccn4)C[C@@H]32)n1 [Example 135, (1R,6S)-8-(4,6-Dimethylpyrimidin-2-yl)-3-{[3-methyl-2-(2H-1,2,3-triazol-2-yl)phenyl]carbonyl}-3,8-diazabicyclo[4.2.0]octane]	15	135
O=C(c1cc(F)ccc1-n1nccn1)N1CC[C@H]2CN(c3cnnc(Cl)c3)[C@H]2C1 [Example 87, (1R,6S)-8-(6-Chloropyridazin-4-yl)-3-{[5-fluoro-2-(2H-1,2,3-triazol-2-yl)phenyl]carbonyl}-3,8-diazabicyclo[4.2.0]octane]	1400	≥ 10000
COc1cccc(OC)c1C(=O)N1CCC2CN(c3nccc(-c4ccccc4)n3)C2C1 (stereo not shown) [Example 15, (2,6-Dimethoxy-phenyl)-[8-(4-phenyl-pyrimidin-2-yl)-3,8-diaza-bicyclo[4.2.0]oct-3-yl]-methanone]	257	237
Cc1cc(C)nc(N2C[C@@H]3CCN(C(=O)c4c(F)cccc4-c4ncccn4)C[C@@H]32)n1 [Example 22, (1R,6S)[8-(4,6-Dimethyl-pyrimidin-2-yl)-3,8-diaza-bicyclo[4.2.0]oct-3-yl]-(2-fluoro-6-pyrimidin-2-yl-phenyl)-methanone]	29	473
O=C(c1cc(F)ccc1-n1nccn1)N1CC[C@H]2CN(c3nccc(C(F)(F)F)n3)[C@H]2C1 [Example 94, (1R,6S)-3-{[5-Fluoro-2-(2H-1,2,3-triazol-2-yl)phenyl]carbonyl}-8-[4-(trifluoromethyl)pyrimidin-2-yl]-3,8-diazabicyclo[4.2.0]octane]	370	10000
Cc1cncc(N2C[C@@H]3CCN(C(=O)c4ccccc4-n4nccn4)C[C@@H]32)n1 [Example 112, (1R,6S)-8-(6-Methylpyrazin-2-yl)-3-{[2-(2H-1,2,3-triazol-2-yl)phenyl]carbonyl}-3,8-diazabicyclo[4.2.0]octane]	115	1960
Cc1cnc(C)c(N2C[C@@H]3CCN(C(=O)c4cccc(F)c4-n4nccn4)C[C@@H]32)n1 [Example 99, (1R,6S)-8-(3,6-Dimethylpyrazin-2-yl)-3-{[3-fluoro-2-(2H-1,2,3-triazol-2-yl)phenyl]carbonyl}-3,8-diazabicyclo[4.2.0]octane]	96	4140
O=C(c1ccccc1-n1nccn1)N1CC[C@H]2CN(c3cnc4ccccc4n3)[C@H]2C1 [Example 39, (1R,6S)-(8-Quinoxalin-2-yl-3,8-diaza-bicyclo[4.2.0]oct-3-yl)-(2-[1,2,3]triazol-2-yl-phenyl)methanone]	20	32
Nc1cc(N2C[C@@H]3CCN(C(=O)c4cc(F)ccc4-n4nccn4)C[C@@H]32)nc(N)n1 [Example 192, 6-[(1R,6S)-3-{[5-Fluoro-2-(2H-1,2,3-triazol-2-yl)phenyl]carbonyl}-3,8-diazabicyclo[4.2.0]oct-8-yl]pyrimidine-2,4-diamine]	1400	10000
O=C(c1ccccc1-c1ccccc1)N1CCC2CN(c3nc4ccccc4o3)C2C1 (stereo not shown) [Example 11, (8-Benzooxazol-2-yl-3,8-diaza-bicyclo[4.2.0]oct-3-yl)-biphenyl-2-yl-methanone]	140	143
Cc1cc(C)nc(N2C[C@@H]3CCN(C(=O)c4ccc(F)cc4-n4nccn4)C[C@@H]32)n1 [Example 30, (1R,6S)-[8-(4,6-Dimethyl-pyrimidin-2-yl)-3,8-diaza-bicyclo[4.2.0]oct-3-yl]-(4-fluoro-2-[1,2,3]triazol-2-yl-phenyl)-methanone]	13	978
O=C(c1c(F)cccc1-n1nccn1)N1CC[C@H]2CN(c3nccc(C(F)(F)F)n3)[C@H]2C1 [Example 95, (1R,6S)-3-{[2-Fluoro-6-(2H-1,2,3-triazol-2-yl)phenyl]carbonyl}-8-[4-(trifluoromethyl)pyrimidin-2-yl]-3,8-diazabicyclo[4.2.0]octane]	23	625
Cc1cccc(C(=O)N2CC[C@H]3CN(c4cc(C(F)(F)F)ccn4)[C@H]3C2)c1-n1nccn1 [Example 147, (1R,6S)-3-{[3-Methyl-2-(2H-1,2,3-triazol-2-yl)phenyl]carbonyl}-8-[4-(trifluoromethyl)pyridin-2-yl]-3,8-diazabicyclo[4.2.0]octane]	91	793

Continued, values first:

Ki (human orexin-2 receptor) [nM]	Ki (human orexin 1 receptor) [nM]	SMILES
28	16	Cc1ccc(C(F)(F)F)c(C(=O)N2CC[C@H]3CN(c4ccnc(-c5ccccc5)n4)[C@H]3C2)c1 [Example 195, (5-Methyl-2-(trifluoromethyl)phenyl)((1R,6S)-8-(2-phenylpyrimidin-4-yl)-3,8-diazabicyclo[4.2.0]octan-3-yl)methanone]
15	392	Cc1cc(C)nc(N2C[C@@H]3CCN(C(=O)c4cc(F)ccc4-c4ccn[nH]4)C[C@@H]32)n1 [Example 171, (1R,6S)-8-(4,6-dimethylpyrimidin-2-yl)-3-{[5-fluoro-2-(1H-pyrazol-3-yl)phenyl]carbonyl}-3,8-diazabicyclo[4.2.0]octane]
740	7300	Cc1cc(C)nc(N2C[C@@H]3CCN(C(=O)c4cccc5c4-c4ccccc4C5=O)C[C@@H]32)n1 [Example 168, 4-{[(1R,6S)-8-(4,6-Dimethylpyrimidin-2-yl)-3,8-diazabicyclo[4.2.0]oct-3-yl]carbonyl}-9H-fluoren-9-one]
540	10000	Cc1cc(C)nc(N2C[C@@H]3CCN(C(=O)c4ccc(C(F)(F)F)nc4-n4ccnn4)C[C@@H]32)n1 [Example 159, (1R,6S)-8-(4,6-Dimethylpyrimidin-2-yl)-3-{[2-(1H-1,2,3-triazol-1-yl)-6-(trifluoromethyl)pyridin-3-yl]carbonyl}-3,8-diazabicyclo[4.2.0]octane]
650	10000	O=C(c1cc(F)ccc1-n1nccn1)N1CC[C@H]2CN(c3cc(NC4CC4)ncn3)[C@H]2C1 [Example 194, N-Cyclopropyl-6-[(1R,6S)-3-{[5-fluoro-2-(2H-1,2,3-triazol-2-yl)phenyl]carbonyl}-3,8-diazabicyclo[4.2.0]oct-8-yl]pyrimidin-4-amine]
110	4100	CN(C)c1cc(N2C[C@@H]3CCN(C(=O)c4cc(F)ccc4-n4nccn4)C[C@@H]32)ncn1 [Example 189, 6-[(1R,6S)-3-{[5-Fluoro-2-(2H-1,2,3-triazol-2-yl)phenyl]carbonyl}-3,8-diazabicyclo[4.2.0]oct-8-yl]-N,N-dimethylpyrimidin-4-amine]
